In patent US7732429B2 (Trustees of Tufts College, priority 1994, dated 2010):
Converted amounts (≈) assume the structure as drawn. Read-outs that look alike come from different tables or passages of the source.

Experiments:
[1] = test system: E. coli Tc^s (MI 308-226); test: susceptibility testing MIC/MLC, drug alone; assay type: cell-based; settings: for MLC: kills 99.9%
[2] = biological target: T1, efflux protein (Escherichia coli, UniProt P02980); test: everted membrane vesicle assay, blocking activity of 13-S-derivatives; assay type: biochemical
T1 sequence (P02980 1-401): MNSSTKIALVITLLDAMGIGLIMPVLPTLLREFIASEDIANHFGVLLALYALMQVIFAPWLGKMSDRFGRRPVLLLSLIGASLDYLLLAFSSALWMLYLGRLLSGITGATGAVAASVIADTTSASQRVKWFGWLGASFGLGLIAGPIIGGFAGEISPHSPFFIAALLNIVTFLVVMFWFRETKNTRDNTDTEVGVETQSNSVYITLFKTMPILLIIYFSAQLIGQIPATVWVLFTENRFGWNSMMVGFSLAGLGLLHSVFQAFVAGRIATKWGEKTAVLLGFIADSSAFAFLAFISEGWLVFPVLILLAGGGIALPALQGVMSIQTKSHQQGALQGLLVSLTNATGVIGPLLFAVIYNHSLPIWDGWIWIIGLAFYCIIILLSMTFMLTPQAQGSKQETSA

[3] = test system: E. faecalis (Class M); settings: result in words
[4] = test system: E. faecalis Tc^s (ATCC9790r); test: susceptibility testing MIC/MLC, drug alone; assay type: cell-based
[5] = test system: E. coli Class A Tc^r (DI-299); assay type: cell-based; settings: drug alone; for MLC: kills 99.9%
[6] = test system: E. coli Class B Tc^r (DI-209); assay type: cell-based; settings: drug alone; for MLC: kills 99.9%
[7] = test system: E. faecalis Tc^r (L) ATCC9790r/Tell.); test: susceptibility testing MIC/MLC, drug alone; assay type: cell-based
[8] = test system: tetracycline resistant S. aureus; settings: in combination with tetracycline
[9] = test system: S. aureus Tc^r (RN4250); assay type: cell-based
[10] = test system: E. faecalis Tc^r(M) (ATCC09790r/TelM); assay type: cell-based; settings: drug alone; for MLC: kills 99.9%
[11] = test system: E. coli DI-299 (Tet A); test: MIC/MLC chart, analog with and without doxycycline; assay type: cell-based; design: key to growth/killing, Analog + Doxy / growth/killing, Doxy Control / growth/killing, Analog Control / growth in MIC/MLC chart: +=growth; 0=no growth (MIC); ↓=killing; ? =99.9% killing (MLC); □=no growth, but no microbiologic testing;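 further: bacterial growth inhibition and killing in broth, each agent tested alone or combined with doxycycline across two-fold serial dilutions, overnight incubation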
[12] = test system: E. faecalis ATCC 9790; test: susceptibility of tetracycline susceptible strains (MIC), C5 esters; assay type: cell-based; settings: E. faecalis ATCC 9790, susceptible strain, drug alone
[13] = test system: E. faecalis 211 (Tet M); test: MIC/MLC chart, analog with and without doxycycline; assay type: cell-based
[14] = test system: S. aureus 450; test: susceptibility of tetracycline susceptible strains (MIC), C5 esters; assay type: cell-based; settings: S. aureus 450, susceptible strain, drug alone
[15] = test system: E. coli ML308; test: as above; assay type: cell-based; settings: E. coli ML308, susceptible strain, drug alone
[16] = test system: tetracycline resistant (Class A) E. coli (strain D1-299); settings: in combination with tetracycline
[17] = E. faecalis bearing the Tet L determinant
[18] = Tc^r (L) ATCC9790r/Tell.), drug alone
[19] = Tc^r (L) ATCC9790r/Tell.), drug alone, kills 99.9%
[20] = Tc^r(RN4250), drug alone, kills 99.9%
[21] = Analog Control: analog alone .195 μg/ml
[22] = analog .195 μg/ml + doxycycline 1.56 μg/ml
[23] = analog .195 μg/ml + doxycycline 3.12 μg/ml
[24] = analog .195 μg/ml + doxycycline 6.25 μg/ml

CN(C)C1C(O)=C(C(N)=O)C(=O)C2(O)C(O)=C3C(=O)c4c(O)cccc4C(CSCc4ccccc4)C3C(O)C12 (stereo not shown) [Benzyl, 6-deoxy-13-(benzylmercapto) tetracycline]
MIC ([1]; Tc^s (MI 308-226), drug alone): 16 ± 5 µg | MLC ([1]; Tc^s (MI 308-226), drug alone): 25 ± 6 µg | Ki [2]: 1590 nM | synergistic activity with tetracycline [3]: little, if any synergistic activity | MIC [4]: 0.5 ± 0.25 µg | MIC [5]: 45 ± 20 µg | MLC [5]: 150 ± 50 µg | MIC [6]: 30 ± 0.25 µg | MLC [6]: 90 ± 10 µg | MLC [7, 17]: 8 ± 2 µg/mL (≈ 14.1 µM) | MIC [7, 18]: 0.75 ± 0.25 µg | MLC [7, 19]: 8 ± 2 µg | combined dose of the two drugs to achieve MLC [8]: ≤ 6 µg/mL | MIC ([9]; Tc^r(RN4250), drug alone): 1 ± 0.25 µg | MLC [9, 20]: 10 ± 4 µg | MIC [10]: 3.5 ± 1 µg | MLC [10]: 18 ± 2 µg

CCC(=O)OC1C2C(=C(O)C3(O)C(=O)C(C(N)=O)=C(O)C(N(C)C)C13)C(=O)c1c(O)cccc1C2CSC1CCCC1 (stereo not shown) [Cmpd 5, 13-cyclopentylthio-5-proprionate-6-deoxy tetracycline]
growth in MIC/MLC chart ([11]; Analog Control: analog alone 1.56 μg/ml): + | growth in MIC/MLC chart ([11]; Analog Control: analog alone 3.12 μg/ml): + | growth in MIC/MLC chart ([11]; Analog Control: analog alone 6.25 μg/ml): + | growth in MIC/MLC chart ([11]; Analog Control: analog alone 12.5 μg/ml): + | growth in MIC/MLC chart ([11]; Analog Control: analog alone 25.0 μg/ml): + | growth in MIC/MLC chart ([11]; Analog Control: analog alone 50.00 μg/ml): + | growth in MIC/MLC chart [11, 21]: + | growth in MIC/MLC chart ([11]; Analog Control: analog alone .39 μg/ml): + | growth in MIC/MLC chart ([11]; Analog Control: analog alone .78 μg/ml): + | growth in MIC/MLC chart ([11]; analog 1.56 μg/ml + doxycycline 1.55 μg/ml): + | growth in MIC/MLC chart ([11]; analog 1.56 μg/ml + doxycycline 3.1 μg/ml): + | growth in MIC/MLC chart ([11]; analog 1.56 μg/ml + doxycycline 6.2 μg/ml): + | growth in MIC/MLC chart ([11]; analog 3.12 μg/ml + doxycycline 1.53 μg/ml): + | growth in MIC/MLC chart ([11]; analog 3.12 μg/ml + doxycycline 3.05 μg/ml): + | growth in MIC/MLC chart ([11]; analog 3.12 μg/ml + doxycycline 6.1 μg/ml): + | growth in MIC/MLC chart ([11]; analog 6.25 μg/ml + doxycycline 3.0 μg/ml): + | growth in MIC/MLC chart ([11]; analog 6.25 μg/ml + doxycycline […]): + | growth in MIC/MLC chart ([11]; analog 12.5 μg/ml + doxycycline 2.8 μg/ml): + | growth in MIC/MLC chart ([11]; analog 12.5 μg/ml + doxycycline […]): + | growth in MIC/MLC chart ([11]; analog 25 μg/ml + doxycycline 2.4 μg/ml): + | growth in MIC/MLC chart ([11]; analog 25 μg/ml + doxycycline […]): + | growth in MIC/MLC chart ([11]; analog 50 μg/ml + doxycycline 1.56 μg/ml): + | growth in MIC/MLC chart ([11]; analog 50 μg/ml + doxycycline .78 μg/ml): + | growth in MIC/MLC chart [11, 22]: + | growth in MIC/MLC chart [11, 23]: + | growth in MIC/MLC chart [11, 24]: + | growth in MIC/MLC chart ([11]; analog .195 μg/ml + doxycycline 12.5 μg/ml): + | growth in MIC/MLC chart ([11]; analog .195 μg/ml + doxycycline 25.0 μg/ml): + | growth in MIC/MLC chart ([11]; analog .39 μg/ml + doxycycline 1.56 μg/ml): + | growth in MIC/MLC chart ([11]; analog .39 μg/ml + doxycycline 3.12 μg/ml): + | growth in MIC/MLC chart ([11]; analog .39 μg/ml + doxycycline 6.25 μg/ml): + | growth in MIC/MLC chart ([11]; analog .39 μg/ml + doxycycline 12.5 μg/ml): + | growth in MIC/MLC chart ([11]; analog .39 μg/ml + doxycycline 24.9 μg/ml): ↓ | growth in MIC/MLC chart ([11]; analog .78 μg/ml + doxycycline 1.56 μg/ml): + | growth in MIC/MLC chart ([11]; analog .78 μg/ml + doxycycline 3.12 μg/ml): + | growth in MIC/MLC chart ([11]; analog .78 μg/ml + doxycycline 6.23 μg/ml): + | MLC of analog in combination ([11]; with 5.9 μg/ml of doxycycline (Chart 8A)): 6.25 μg/ml | MIC [12]: .4 µg/mL (≈ 0.666 µM) | growth in MIC/MLC chart [13, 21]: + | growth in MIC/MLC chart [13, 22]: + | growth in MIC/MLC chart [13, 23]: + | growth in MIC/MLC chart [13, 24]: + | MIC [14]: .4 µg/mL (≈ 0.666 µM) | MIC [15]: 20 µg/mL (≈ 33.3 µM)

CCCSCC1c2cccc(O)c2C(=O)C2=C(O)C3(O)C(=O)C(C(N)=O)=C(O)C(N(C)C)C3C(OC(=O)CC)C21 (stereo not shown) [Cmpd 8, 13-propylthio-5-proprionate-6-deoxy-tetracycline]
MIC [12]: 2.5 µg/mL (≈ 4.35 µM) | MIC [14]: .3 µg/mL (≈ 0.522 µM) | MIC [15]: 20 µg/mL (≈ 34.8 µM)

CN(C)C1C(O)=C(C(N)=O)C(=O)C2(O)C(O)=C3C(=O)c4c(O)cccc4C(CSC4CCCCC4)C3C(O)C12 (stereo not shown) [Cyclohexyl]
MIC ([1]; Tc^s (MI 308-226), drug alone): 60 ± 10 µg | MLC ([1]; Tc^s (MI 308-226), drug alone): 120 µg | Ki [2]: 716 nM | synergistic activity with tetracycline [3]: little, if any synergistic activity | MIC [4]: 1.25 ± 0.25 µg | MIC [5]: 100 ± 0.26 µg | MLC [5]: >200 µg | concentrations of analogue and tetracycline that inhibited growth [16]: ≤ 5 μg/ml | MLC [7, 17]: 8 ± 2 µg/mL (≈ 14.3 µM) | MIC [7, 18]: 1.5 ± 0.5 µg | MLC [7, 19]: 8 ± 2 µg | combined dose of the two drugs to achieve MLC [8]: ≤ 6 µg/mL | MIC ([9]; Tc^r(RN4250), drug alone): 1.5 ± 0.5 µg | MLC [9, 20]: 10 ± 4 µg | MIC [10]: 2.5 ± 0.5 µg | MLC [10]: 10 ± 0.25 µg

CN(C)C1C(O)=C(C(N)=O)C(=O)C2(O)C(O)=C3C(=O)c4c(O)cccc4C(CSC4CCCC4)C3C(O)C12 (stereo not drawn) [Cyclopentyl, 13-cyclopentylthio-5-hydroxy-6-α-deoxy-tetracycline]
MIC ([1]; Tc^s (MI 308-226), drug alone): 20 µg | MLC ([1]; Tc^s (MI 308-226), drug alone): 60 µg | Ki [2]: 367 nM | synergistic activity with tetracycline [3]: little, if any synergistic activity | MIC [4]: 1 ± 0.25 µg | MIC [5]: 40 ± 0.25 µg | MLC [5]: 80 µg | MIC [6]: 80 ± 40 µg | MLC [6]: 100 ± 60 µg | concentrations of analogue and tetracycline that inhibited growth [16]: ≤ 5 μg/ml | MIC [7, 18]: 1 ± 0.5 µg | MLC [7, 19]: 18 ± 2 µg | combined dose of the two drugs to achieve MLC [8]: ≤ 6 µg/mL | MIC ([9]; Tc^r(RN4250), drug alone): 2 ± 0.25 µg | MLC [9, 20]: 6 ± 2 µg | MLC ([9]; resistant S. aureus): 6 ± 2 µg/mL (≈ 11 µM) | MIC [10]: 3 ± 1 µg | MLC [10]: >16 µg

CCSCC1c2cccc(O)c2C(=O)C2=C(O)C3(O)C(=O)C(C(N)=O)=C(O)C(N(C)C)C3CC21 (stereo not shown) [Ethyl, 6-deoxy-13-(ethylmercapto) tetracycline]
MIC ([1]; Tc^s (MI 308-226), drug alone): 5 ± 0.25 µg | MLC ([1]; Tc^s (MI 308-226), drug alone): 50 µg | MIC ([1]; susceptible E. coli): 5 µg/mL (≈ 10.2 µM) | MIC [4]: 1 ± 0.5 µg | MIC [5]: 14 ± 4 µg | MLC [5]: 45 ± 5 µg | MIC [6]: 36 ± 16 µg | MLC [6]: 50 ± 10 µg | concentrations of analogue and tetracycline that inhibited growth [16]: ≤ 5 μg/ml | MIC [7, 18]: 4 ± 1 µg | MIC [10]: 25 ± 5 µg
